{"source": "patent US9926264B2", "about": "“Phenylcarbamate derivatives as formyl peptide receptor modulators” (Allergan, Inc., priority 2013, dated 2018)", "biological_target": "T1, FPR2 (Homo sapiens, UniProt P25090)", "T1 construct": "expressed in transfected cells; host or cells: CHO-Gα16 cells", "T1 sequence (P25090 1-351)": "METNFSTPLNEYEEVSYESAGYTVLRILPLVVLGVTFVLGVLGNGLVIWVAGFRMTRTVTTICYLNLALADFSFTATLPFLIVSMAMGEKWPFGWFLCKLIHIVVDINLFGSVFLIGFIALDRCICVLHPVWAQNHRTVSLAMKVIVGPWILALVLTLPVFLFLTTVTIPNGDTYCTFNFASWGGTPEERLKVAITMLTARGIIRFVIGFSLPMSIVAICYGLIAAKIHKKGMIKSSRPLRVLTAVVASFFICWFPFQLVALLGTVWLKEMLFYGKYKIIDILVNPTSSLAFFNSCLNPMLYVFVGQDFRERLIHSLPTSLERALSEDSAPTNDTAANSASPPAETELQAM", "test": "compound-induced calcium activity on FLIPR Tetra in CHO-Gα16 cells stably expressing FPR2", "assay_type": "cell-based", "conditions": "for Emax: efficacy value in brackets after EC50, read-out: FPR2 Gα16-CHO (% eff); for pEC50: tested 0.61 to 10,000 nM", "protocol": "CHO-Gα16 cells stably expressing FPR2 were cultured in (F12, 10% FBS, 1% PSA, 400 μg/ml geneticin and 50 μg/ml hygromycin) and HEK-Gqi5 cells stable expressing FPR1 were cultured in (DMEM high glucose, 10% FBS, 1% PSA, 400 μg/ml geneticin and 50 μg/ml hygromycin). In general, the day before the experiment, 18,000 cells/well were plated in a 384-well clear bottom poly-D-lysine coated plate. The following day the screening compound-induced calcium activity was assayed on the FLIPR^Tetra. The drug plates were prepared in 384-well microplates using the EP3 and the MultiPROBE robotic liquid handling systems. Compounds were tested at concentrations ranging from 0.61 to 10,000 nM. Results are expressed as EC50 (nM) and % efficacy values.", "note": "pEC50: −log10 of the molar value."}
{"smiles": "CC(C)C[C@H](OC(=O)Nc1ccc(C(F)(F)F)cc1)C(=O)N(CC(=O)OC(C)(C)C)C(C)C", "note": "[Compound 30, tert-Butyl (Isopropyl{(2S)-4-methyl-2-[({[4-(trifluoromethyl)phenyl]amino}carbonyl)oxy]pentanoyl}amino)acetate]", "values": [{"measurement": "Emax", "value": 76, "unit": "%"}, {"measurement": "pEC50", "value": 6.52}]}
{"smiles": "CC(C)C[C@H](OC(=O)Nc1ccc(C(F)(F)F)cc1)C(=O)NCCO", "note": "[Compound 6, (2S)-1-[(2-Hydroxyethyl)amino]-4-Methyl-1-oxopentan-2-yl [4-(trifluoromethyl)phenyl]carbamate]", "values": [{"measurement": "Emax", "value": 75, "unit": "%"}, {"measurement": "pEC50", "value": 6.84}]}
{"smiles": "CC(C)C[C@H](OC(=O)Nc1ccc(Br)cc1)C(=O)NCC(=O)OC(C)(C)C", "note": "[Compound 1, tert-Butyl {[(2S)-2-{[(4-Bromophenyl)carbamoyl]oxy}-4-methylpentanoyl]amino}acetate]", "values": [{"measurement": "Emax", "value": 89, "unit": "%"}, {"measurement": "pEC50", "value": 6.28}]}
{"smiles": "CC(C)C[C@H](OC(=O)Nc1ccc(C(F)(F)F)cc1)C(=O)N(C)CC(=O)OC(C)(C)C", "note": "[Compound 12, tert-Butyl {Methyl[(2S)-4-methyl-2-({[4-(trifluoromethyl)phenyl]carbamoyl}oxy)pentanoyl]amino}acetate]", "values": [{"measurement": "Emax", "value": 100, "unit": "%"}, {"measurement": "pEC50", "value": 7.61}]}
{"smiles": "CC(C)C[C@H](OC(=O)Nc1ccc(Br)cc1)C(=O)O", "note": "[Intermediate 3, (2S)-2-{[(4-Bromophenyl)carbamoyl]oxy}-4-methylpentanoic acid]", "values": [{"measurement": "Emax", "value": 85, "unit": "%"}, {"measurement": "pEC50", "value": 8.07}]}
{"smiles": "CC(C)C[C@H](OC(=O)Nc1ccc(Br)cc1)C(=O)NCCN", "note": "[Compound 39, (1S)-1-{[(2-aminoethyl)amino]carbonyl}-3-methylbutyl (4-bromophenyl) carbamate]", "values": [{"measurement": "Emax", "value": 89, "unit": "%"}, {"measurement": "pEC50", "value": 7.11}]}
{"smiles": "CC(C)C[C@H](OC(=O)Nc1ccc(C(F)(F)F)cc1)C(=O)N(C)Cc1nnn[nH]1", "note": "[Compound 17, (2S)-4-methyl-1-[methyl(1H-tetrazol-5-ylmethyl)amino]-1-oxopentan-2-yl [4-(trifluoromethyl)phenyl]carbamate]", "values": [{"measurement": "Emax", "value": 91, "unit": "%"}, {"measurement": "pEC50", "value": 8.62}]}
{"smiles": "CC(C)C[C@H](OC(=O)Nc1ccc(Br)cc1)C(=O)N(C)CCO", "note": "[Compound 4, (2S)-1-[(2-Hydroxyethyl)(methyl)amino]-4-methyl-1-oxopentan-2-yl (4-bromophenyl)carbamate]", "values": [{"measurement": "Emax", "value": 97, "unit": "%"}, {"measurement": "pEC50", "value": 7.23}]}
{"smiles": "CC(C)C[C@H](OC(=O)Nc1ccc(C(F)(F)F)cc1)C(=O)OC(C)(C)C", "note": "[Intermediate 2, tert-Butyl (2S)-4-Methyl-2-({[4-(trifluoromethyl)phenyl]carbamoyl}oxy)pentanoate]", "values": [{"measurement": "Emax", "value": 56, "unit": "%"}, {"measurement": "pEC50", "value": 5.00}]}
{"smiles": "O=C(Nc1ccc(Br)cc1)O[C@@H](Cc1ccccc1)C(=O)NCc1nnn[nH]1", "note": "[Compound 35, (1S)-1-benzyl-2-oxo-2-[(1H-tetrazol-5-ylmethyl)amino]ethyl (4-bromophenyl)carbamate]", "values": [{"measurement": "Emax", "value": 103, "unit": "%"}, {"measurement": "pEC50", "value": 9.08}]}
{"smiles": "CCCN(CC(=O)OC(C)(C)C)C(=O)[C@H](CC(C)C)OC(=O)Nc1ccc(C(F)(F)F)cc1", "note": "[Compound 29, tert-Butyl [{(2S)-4-methyl-2-[({[4-(trifluoromethyl)phenyl]amino}carbonyl)oxy]pentanoyl}(propyl)amino]acetate]", "values": [{"measurement": "Emax", "value": 101, "unit": "%"}, {"measurement": "pEC50", "value": 7.94}]}
{"smiles": "CC(C)C[C@H](OC(=O)Nc1ccc(C(F)(F)F)cc1)C(=O)NCC(=O)O", "note": "[Compound 20, {[(2S)-4-Methyl-2-({[4-(trifluoromethyl)phenyl]carbamoyl}oxy)pentanoyl]amino}acetic acid]", "values": [{"measurement": "Emax", "value": 99, "unit": "%"}, {"measurement": "pEC50", "value": 8.41}]}
{"smiles": "CN(CC(=O)OC(C)(C)C)C(=O)[C@H](Cc1ccccc1)OC(=O)Nc1ccc(Br)cc1", "note": "[Compound 36, tert-Butyl {[(2S)-2-({[(4-bromophenyl)amino]carbonyl}oxy)-3-phenylpropanoyl](methyl)amino}acetate]", "values": [{"measurement": "Emax", "value": 105, "unit": "%"}, {"measurement": "pEC50", "value": 7.93}]}
{"smiles": "CC(C)C[C@H](OC(=O)Nc1ccc(C(F)(F)F)cc1)C(=O)NCS(=O)(=O)O", "note": "[Compound 28, ({(2S)-4-methyl-2-[({[4-(trifluoromethyl)phenyl]amino}carbonyl)oxy]pentanoyl}amino)methanesulfonic acid]", "values": [{"measurement": "Emax", "value": 85, "unit": "%"}, {"measurement": "pEC50", "value": 8.37}]}
{"smiles": "CCCN(CC(=O)OC(C)(C)C)C(=O)[C@H](CC(C)C)OC(=O)Nc1ccc(Br)cc1", "note": "[Compound 9, tert-Butyl {[(2S)-2-{[(4-Bromophenyl)carbamoyl]oxy}-4-methylpentanoyl](propyl)amino}acetate]", "values": [{"measurement": "Emax", "value": 104, "unit": "%"}, {"measurement": "pEC50", "value": 8.36}]}
{"smiles": "CC(C)C[C@H](OC(=O)Nc1ccc(Br)cc1)C(=O)N(C)CC(=O)O", "note": "[Compound 21, {[(2S)-2-{[(4-Bromophenyl)carbamoyl]oxy}-4-methylpentanoyl](methyl)amino}acetic acid]", "values": [{"measurement": "Emax", "value": 106, "unit": "%"}, {"measurement": "pEC50", "value": 9.60}]}
{"smiles": "O=C(Nc1ccc(Br)cc1)O[C@@H](Cc1ccccc1)C(=O)O", "note": "[Intermediate 4a, (2S)-2-({[(4-bromophenyl)amino]carbonyl}oxy)-3-phenylpropanoic acid]", "values": [{"measurement": "Emax", "value": 103, "unit": "%"}, {"measurement": "pEC50", "value": 8.84}]}
{"smiles": "CC(C)C[C@H](OC(=O)Nc1ccc(C(F)(F)F)cc1)C(=O)N(C)CC(=O)O", "note": "[Compound 25, {Methyl[(2S)-4-methyl-2-({[4-(trifluoromethyl)phenyl]carbamoyl}oxy)pentanoyl]amino}acetic acid]", "values": [{"measurement": "Emax", "value": 97, "unit": "%"}, {"measurement": "pEC50", "value": 9.03}]}
{"smiles": "CCCN(CC(=O)O)C(=O)[C@H](CC(C)C)OC(=O)Nc1ccc(C(F)(F)F)cc1", "note": "[Compound 37, [{(2S)-4-methyl-2-[({[4-(trifluoromethyl)phenyl]amino}carbonyl)oxy]pentanoyl}(propyl)amino]acetic acid]", "values": [{"measurement": "Emax", "value": 102, "unit": "%"}, {"measurement": "pEC50", "value": 8.92}]}
{"smiles": "CC(C)C[C@H](OC(=O)Nc1ccc(C(F)(F)F)cc1)C(=O)NCC(=O)OC(C)(C)C", "note": "[Compound 2, tert-Butyl {[(2S)-4-Methyl-2-({[4-(trifluoromethyl)phenyl]carbamoyl}oxy)pentanoyl]amino}acetate]", "values": [{"measurement": "Emax", "value": 112, "unit": "%"}, {"measurement": "pEC50", "value": 5.70}]}
{"smiles": "CCN(CC(=O)O)C(=O)[C@H](CC(C)C)OC(=O)Nc1ccc(C(F)(F)F)cc1", "note": "[Compound 26, {Ethyl[(2S)-4-methyl-2-({[4-(trifluoromethyl)phenyl]carbamoyl}oxy)pentanoyl]amino}acetic acid]", "values": [{"measurement": "Emax", "value": 98, "unit": "%"}, {"measurement": "pEC50", "value": 9.54}]}
{"smiles": "CC(C)C[C@H](OC(=O)Nc1ccc(Br)cc1)C(=O)NCCNS(=O)(=O)N(C)C", "note": "[Compound 42, (1S)-1-{[(2-{[(Dimethylamino)sulfonyl]amino}ethyl)amino]carbonyl}-3-methylbutyl (4-bromophenyl)carbamate]", "values": [{"measurement": "Emax", "value": 99, "unit": "%"}, {"measurement": "pEC50", "value": 6.90}]}
{"smiles": "CC(C)C[C@H](OC(=O)Nc1ccc(C(F)(F)F)cc1)C(=O)O", "note": "[Intermediate 4, (2S)-4-Methyl-2-({[4-(Trifluoromethyl)phenyl]carbamoyl}oxy)pentanoic acid]", "values": [{"measurement": "Emax", "value": 88, "unit": "%"}, {"measurement": "pEC50", "value": 7.61}]}
{"smiles": "CCN(Cc1nnn[nH]1)C(=O)[C@H](CC(C)C)OC(=O)Nc1ccc(C(F)(F)F)cc1", "note": "[Compound 32, (1S)-1-{[ethyl(1H-tetrazol-5-ylmethyl)amino]carbonyl}-3-methylbutyl [4-(trifluoromethyl)phenyl]carbamate]", "values": [{"measurement": "Emax", "value": 100, "unit": "%"}, {"measurement": "pEC50", "value": 9.18}]}
{"smiles": "CCOP(=O)(CNC(=O)[C@H](CC(C)C)OC(=O)Nc1ccc(Br)cc1)OCC", "note": "[Compound 8, Diethyl ({[(2S)-2-{[(4-bromophenyl)carbamoyl]oxy}-4-methylpentanoyl]amino}methyl)phosphonate]", "values": [{"measurement": "Emax", "value": 100, "unit": "%"}, {"measurement": "pEC50", "value": 8.74}]}
{"smiles": "CC(C)C[C@H](OC(=O)Nc1ccc(Br)cc1)C(=O)NCCO", "note": "[Compound 7, (2S)-1-[(2-Hydroxyethyl)amino]-4-methyl-1-oxopentan-2-yl (4-bromophenyl)carbamate]", "values": [{"measurement": "Emax", "value": 98, "unit": "%"}, {"measurement": "pEC50", "value": 7.46}]}
{"smiles": "CC(C)C[C@H](OC(=O)Nc1ccc(Br)cc1)C(=O)N(C)CCOS(=O)(=O)O", "note": "[Compound 27, (2S)-4-Methyl-1-{methyl[2-(sulfooxy)ethyl]amino}-1-oxopentan-2-yl (4-bromophenyl)carbamate]", "values": [{"measurement": "Emax", "value": 99, "unit": "%"}, {"measurement": "pEC50", "value": 8.06}]}
{"smiles": "CC(C)C[C@H](OC(=O)Nc1ccc(Br)cc1)C(=O)N(CC(=O)OC(C)(C)C)C(C)C", "note": "[Compound 10, tert-Butyl {[(2S)-2-{[(4-Bromophenyl)carbamoyl]oxy}-4-methylpentanoyl](propan-2-yl)amino}acetate]", "values": [{"measurement": "Emax", "value": 103, "unit": "%"}, {"measurement": "pEC50", "value": 7.96}]}
{"smiles": "CC(C)C[C@H](OC(=O)Nc1ccc(Br)cc1)C(=O)NCCNC(=O)OC(C)(C)C", "note": "[Compound 33, (1S)-1-[({2-[(tert-butoxycarbonyl)amino]ethyl}amino)carbonyl]-3-methylbutyl (4-bromophenyl)carbamate]", "values": [{"measurement": "Emax", "value": 103, "unit": "%"}, {"measurement": "pEC50", "value": 6.40}]}
{"smiles": "CCOP(=O)(CNC(=O)[C@H](CC(C)C)OC(=O)Nc1ccc(C(F)(F)F)cc1)OCC", "note": "[Compound 5, Diethyl ({[(2S)-4-methyl-2-({[4-(Trifluoromethyl)phenyl]carbamoyl}oxy)pentanoyl]amino}methyl)phosphonate]", "values": [{"measurement": "Emax", "value": 101, "unit": "%"}, {"measurement": "pEC50", "value": 8.17}]}
{"smiles": "CC(C)(C)OC(=O)[C@H](Cc1ccccc1)OC(=O)Nc1ccc(Br)cc1", "note": "[Intermediate 2a, tert-Butyl (2S)-2-({[(4-bromophenyl)amino]carbonyl}oxy)-3-phenyl propanoate]", "values": [{"measurement": "Emax", "value": 55, "unit": "%"}, {"measurement": "pEC50", "value": 5.66}]}
